# Data taken from the supplement of paper PMC10307832.
# Legend:
# Test in all cases: relative viability (nuclei count vs DMSO), 5 days (fraction); higher = more cells survive
# [1] = compound: C1=CC=C(C(=C1)C2=CC=C(C=C2)C3=CSC4=C3C(=C(C(=O)N4)C#N)O)O + Nc1ncn([C@H]2C[C@H](O)[C@@H](CO)O2)c(=O)n1 [Decitabine] (partner 2 µM)
# Method in brief: (§1)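 Five library-drug doses in √10 steps were combined with a fixed anchor-drug dose, or a single drug was given alone, by pin tool to lung cancer cell lines in 1536-well plates the day after seeding. Nuclei were stained and counted after 5 days. Relative viability is the nuclei count in treated wells over that in vehicle wells, taken as the median of duplicate plates.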
# TGX 221 + Lapatinib = compound: CC1=CN2C(=O)C=C(N=C2C(=C1)C(C)NC3=CC=CC=C3)N4CCOCC4 [TGX 221] + CS(=O)(=O)CCNCc1ccc(-c2ccc3ncnc(Nc4ccc(OCc5cccc(F)c5)c(Cl)c4)c3c2)o1 [Lapatinib] (partner 2 µM)
# Method in brief: as §1
# [2] = compound: O=C(CCCCCCNC(=O)c1cnc(N(c2ccccc2)c2ccccc2)nc1)NO [Ricolinostat] + CC(=O)c1c(C)c2cnc(Nc3ccc(N4CCNCC4)cn3)nc2n(C2CCCC2)c1=O [Palbociclib] (partner 0.5 µM)
# Method in brief: as §1
# Ricolinostat + Alpelisib = compound: O=C(CCCCCCNC(=O)c1cnc(N(c2ccccc2)c2ccccc2)nc1)NO [Ricolinostat] + Cc1nc(NC(=O)N2CCC[C@H]2C(N)=O)sc1-c1ccnc(C(C)(C)C(F)(F)F)c1 [Alpelisib] (partner 2 µM)
# Method in brief: as §1
# Ricolinostat + Dasatinib = compound: O=C(CCCCCCNC(=O)c1cnc(N(c2ccccc2)c2ccccc2)nc1)NO [Ricolinostat] + Cc1nc(Nc2ncc(C(=O)Nc3c(C)cccc3Cl)s2)cc(N2CCN(CCO)CC2)n1 [Dasatinib] (partner 0.075 µM)
# Method in brief: as §1
cell line,measurement,setting,value
NCI-H1792,relative viability,[1]; first compound 0.253 µM,0.715
same,relative viability,[1]; first compound 0.8 µM,0.482
same,relative viability,[1]; first compound 2.53 µM,0.617
same,relative viability,[1]; first compound 8 µM,0.438
same,relative viability,TGX 221 + Lapatinib; first compound 0.08 µM,0.782
same,relative viability,TGX 221 + Lapatinib; first compound 0.253 µM,0.983
same,relative viability,TGX 221 + Lapatinib; first compound 0.8 µM,0.814
same,relative viability,TGX 221 + Lapatinib; first compound 2.53 µM,0.846
same,relative viability,TGX 221 + Lapatinib; first compound 8 µM,0.887
same,relative viability,[2]; first compound 0.253 µM,0.635
same,relative viability,[2]; first compound 0.8 µM,0.684
same,relative viability,[2]; first compound 2.53 µM,0.742
same,relative viability,Ricolinostat + Alpelisib; first compound 0.08 µM,0.55
same,relative viability,Ricolinostat + Alpelisib; first compound 0.253 µM,0.661
same,relative viability,Ricolinostat + Alpelisib; first compound 0.8 µM,0.67
same,relative viability,Ricolinostat + Alpelisib; first compound 2.53 µM,0.59
same,relative viability,Ricolinostat + Dasatinib; first compound 0.253 µM,0.829
same,relative viability,Ricolinostat + Dasatinib; first compound 0.8 µM,0.718
same,relative viability,Ricolinostat + Dasatinib; first compound 2.53 µM,0.882
